Source: the supplement of paper PMC10307832

What was measured:
Experiment in all cases: relative viability (nuclei count vs DMSO), 5 days (fraction); higher = more cells survive
[1] = compound: C[C@]1(O)C[C@@H](c2nc(-c3ccc4ccc(-c5ccccc5)nc4c3)c3c(N)nccn32)C1 [Linsitinib] + CS(=O)(=O)N1CCN(Cc2cc3nc(-c4cccc5[nH]ncc45)nc(N4CCOCC4)c3s2)CC1 [Pictilisib] (partner 1 µM)
Summary of the method: (§1)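 After 5 days of treatment, lung cancer cells in 1536-well plates were fixed and stained in a single step (final 0.05% Triton X-100, 1% formaldehyde, 1 ug/ml Hoechst) and their nuclei counted on 4× images. Treatment had been applied by pin tool the day after seeding as one drug alone or as a fixed anchor-drug dose with five library-drug doses (not always all listed) in √10 steps. Relative viability is the nuclei count of treated wells divided by that of vehicle wells, and values are medians of duplicate plates.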

[2] = compound: C[C@]1(O)C[C@@H](c2nc(-c3ccc4ccc(-c5ccccc5)nc4c3)c3c(N)nccn32)C1 [Linsitinib] + Nc1ncn([C@H]2C[C@H](O)[C@@H](CO)O2)c(=O)n1 [Decitabine] (partner 2 µM)
Summary of the method: as §1

[3] = compound: C[C@]1(O)C[C@@H](c2nc(-c3ccc4ccc(-c5ccccc5)nc4c3)c3c(N)nccn32)C1 [Linsitinib] + CCNC(=O)c1noc(-c2cc(C(C)C)c(O)cc2O)c1-c1ccc(CN2CCOCC2)cc1 [Luminespib] (partner 0.01 µM)
Summary of the method: as §1

[4] = compound: C[C@]1(O)C[C@@H](c2nc(-c3ccc4ccc(-c5ccccc5)nc4c3)c3c(N)nccn32)C1 [Linsitinib] + C[C@@H](Oc1cc(-c2cnn(C3CCNCC3)c2)cnc1N)c1c(Cl)ccc(F)c1Cl [Crizotinib] (partner 1 µM)
Summary of the method: as §1

Cell Line	relative viability ([1]; first compound 0.01 µM)	relative viability ([1]; first compound 0.03162 µM)	relative viability ([1]; first compound 0.1 µM)	relative viability ([1]; first compound 0.3162 µM)	relative viability ([1]; first compound 1 µM)	relative viability ([2]; first compound 0.01 µM)	relative viability ([2]; first compound 0.03162 µM)	relative viability ([2]; first compound 0.1 µM)	relative viability ([2]; first compound 0.3162 µM)	relative viability ([2]; first compound 1 µM)	relative viability ([3]; first compound 0.01 µM)	relative viability ([3]; first compound 0.03162 µM)	relative viability ([3]; first compound 0.1 µM)	relative viability ([3]; first compound 0.3162 µM)	relative viability ([3]; first compound 1 µM)	relative viability ([4]; first compound 0.01 µM)	relative viability ([4]; first compound 0.03162 µM)	relative viability ([4]; first compound 0.1 µM)	relative viability ([4]; first compound 0.3162 µM)	relative viability ([4]; first compound 1 µM)
COR-L23	0.769	0.924	0.652	0.393	0.341	0.399	0.539	0.418	0.351	0.441	0.678	0.48	0.783	0.555	0.583	0.611	0.672	0.742	0.556	0.658
NCI-H3122	0.601	0.58	0.572	0.499	0.399	0.442	0.388	0.424		0.462	0.0915	0.1	0.0744	0.0902	0.0925	0.261	0.281	0.282	0.323	0.323
NCI-H2170	0.336	0.317	0.308	0.26	0.23	0.445	0.528	0.461		0.468	0.704	0.761	0.515	0.557	0.687	1.12	1.02	1.2	0.89	1.11
BEN	0.526	0.576	0.64	0.425	0.606	0.526	0.945	0.65	0.442	0.747	0.411	0.503	0.3		0.383	0.767	1.01	0.993	0.611	0.826
NCI-H647	0.415	0.42	0.452		0.347	0.39	0.524	0.395	0.405	0.43	0.169	0.117	0.524		0.184	1.08	1.01	1.14		0.987
PC-14	0.691	0.701	0.75	0.598	0.5	0.2	0.196	0.22	0.158	0.172	0.217	0.112	0.18	0.196	0.103	0.837	0.914	0.916	0.869	0.794
NCI-H1666	0.376	0.286	0.296	0.162	0.307	0.622	0.79	0.732	0.521	0.602	0.95	1.08	1.12	1.07	1.02	0.949	1.13	0.907	0.594	0.552
COR-L 105	0.454	0.434	0.387	0.301	0.25	0.636	0.569	0.597	0.554	0.659	0.857	0.688	0.644	0.638	0.581	0.938	0.7	0.845	0.631	0.471
LU99A	0.291	0.347	0.315	0.204	0.242	0.924	0.881	0.81		0.917	0.272	0.25	0.231	0.241	0.216	0.591	0.716	0.605	0.432	0.462
NCI-H596	0.248	0.393	0.382	0.343	0.317	1.03	1.06	1.11	0.976	1.01	1.16	0.991	1.2	0.862	0.867	0.969	1.08	0.969	0.987	1.04
201T	0.706	0.703	0.688	0.616	0.534	0.868	0.881	0.904	0.832	0.889	1.05	1.13	1.02	1.18	1.1	1.02	1.03	1.07	1.11	1.01
HCC-15	0.743	0.703	0.824	0.234	0.583	0.63	0.509	0.61	0.28	0.368	0.218	0.296	0.271		0.34	0.833	0.724	0.837	0.52	0.696
